The values that follow come from patent publication US9562085B2, “Antimicrobial peptide” (priority 2013, dated 2017).

Each structure is given as a SMILES string. Non-standard residues stand in square brackets, D forms with d. Residues, ends and D or L forms follow the SMILES beside them.

One experiment concerns S. aureus JAR. The experiment is classed as cell-based. Particulars: JAR, 2 h. The procedure: S. aureus JAR is described in Campoccia et al. (Int. J. Artif. Organs, 2008 September; 31(9):841-7).
For the in vitro killing assay with P10 variants, S. aureus JAR ([…] CFU/ml) were incubated for 2 hours at 37° C. with various concentrations of the peptides in PBS or in PBS/human plasma (1/1, v/v). […] The LC99.9 is the average value of two independent experiments.
For the compound `CC[C@@H](C)[C@@H](NC(=O)[C@H](NC(=O)[C@@H](CCC(=O)O)NC(=O)[C@@H](CCCCN)NC(=O)[C@@H](CC(C)C)NC(=O)[C@@H](CCCCN)NC(=O)[C@@H](CCCNC(=N)N)NC(=O)[C@@H](Cc1c[nH]c2ccccc12)NC(=O)[C@@H](CC(C)C)NC(=O)[C@@H](CCCNC(=N)N)NC(=O)[C@@H](CCC(N)=O)NC(=O)[C@H](NC(=O)[C@@H](CC(C)C)NC(=O)[C@@H](CCCNC(=N)N)NC(=O)[C@H](NC(=O)[C@@H](CC(C)C)NC(=O)[C@H](N)CCCNC(=N)N)[C@H](C)O)C(C)C)C(C)C)C(=O)N[C@H](CCCCN)C(=O)N[C@H](CCCCN)C(=O)N[C@H](Cc1ccc(O)cc1)C(=O)N[C@H](CCC(=O)O)C(=O)N[C@H](CCCNC(=N)N)C(=O)N[C@H](C)C(=O)N[C@H](CC(C)C)C(N)=O` [Peptide 1241-03, rltrlvqrlwrklkevikkyeralB] (H-[dR][dL][dT][dR][dL][dV][dQ][dR][dL][dW][dR][dK][dL][dK][dE][dV][dI][dK][dK][dY][dE][dR][dA][dL]-NH2), the “LC99.9 (μM) (50% plasma)” value was over 102.4 µM and the “LC99.9 (μM) (PBS)” value is 3.2 µM.
In the case of `CC[C@H](C)[C@H](NC(=O)[C@H](CCCCN)NC(=O)[C@H](CCCCN)NC(=O)[C@H](Cc1ccc(O)cc1)NC(=O)[C@H](CCC(=O)O)NC(=O)[C@H](CCCNC(=N)N)NC(=O)[C@H](C)NC(=O)[C@@H](CC(C)C)NC(C)=O)C(=O)N[C@H](C(=O)N[C@@H](CCC(=O)O)C(=O)N[C@@H](CCCCN)C(=O)N[C@@H](CC(C)C)C(=O)N[C@@H](CCCCN)C(=O)N[C@@H](CCCNC(=N)N)C(=O)N[C@@H](Cc1c[nH]c2ccccc12)C(=O)N[C@@H](CC(C)C)C(=O)N[C@@H](CCCNC(=N)N)C(=O)N[C@@H](CCC(N)=O)C(=O)N[C@H](C(=O)N[C@@H](CC(C)C)C(=O)N[C@@H](CCCNC(=N)N)C(=O)N[C@H](C(=O)N[C@@H](CC(C)C)C(=O)N[C@@H](CCCNC(=N)N)C(N)=O)[C@@H](C)O)C(C)C)C(C)C` [Peptide 1301-1, JlAREYKKIVEKLKRWLRQVLRTLRB] (Ac-[dL]AREYKKIVEKLKRWLRQVLRTLR-NH2), the “LC99.9 (μM) (50% plasma)” value was 38.4 µM and the “LC99.9 (μM) (PBS)” value worked out at 0.6 µM.
Taken in the same sequence, the figures for `CC[C@H](C)[C@H](NC(=O)[C@H](CCCCN)NC(=O)[C@H](CCCCN)NC(=O)[C@H](Cc1ccc(O)cc1)NC(=O)[C@H](CCC(=O)O)NC(=O)[C@H](CCCNC(=N)N)NC(=O)[C@@H](C)NC(=O)[C@H](CC(C)C)NC(C)=O)C(=O)N[C@H](C(=O)N[C@@H](CCC(=O)O)C(=O)N[C@@H](CCCCN)C(=O)N[C@@H](CC(C)C)C(=O)N[C@@H](CCCCN)C(=O)N[C@@H](CCCNC(=N)N)C(=O)N[C@@H](Cc1c[nH]c2ccccc12)C(=O)N[C@@H](CC(C)C)C(=O)N[C@@H](CCCNC(=N)N)C(=O)N[C@@H](CCC(N)=O)C(=O)N[C@H](C(=O)N[C@@H](CC(C)C)C(=O)N[C@@H](CCCNC(=N)N)C(=O)N[C@H](C(=O)N[C@@H](CC(C)C)C(=O)N[C@@H](CCCNC(=N)N)C(N)=O)[C@@H](C)O)C(C)C)C(C)C` [Peptide 1301-2, JLaREYKKIVEKLKRWLRQVLRTLRB] (Ac-L[dA]REYKKIVEKLKRWLRQVLRTLR-NH2) were 38.4 µM and 0.6 µM.
Taken in the same sequence, the figures for `CC[C@H](C)[C@H](NC(=O)[C@H](CCCCN)NC(=O)[C@H](CCCCN)NC(=O)[C@H](Cc1ccc(O)cc1)NC(=O)[C@H](CCC(=O)O)NC(=O)[C@@H](CCCNC(=N)N)NC(=O)[C@H](C)NC(=O)[C@H](CC(C)C)NC(C)=O)C(=O)N[C@H](C(=O)N[C@@H](CCC(=O)O)C(=O)N[C@@H](CCCCN)C(=O)N[C@@H](CC(C)C)C(=O)N[C@@H](CCCCN)C(=O)N[C@@H](CCCNC(=N)N)C(=O)N[C@@H](Cc1c[nH]c2ccccc12)C(=O)N[C@@H](CC(C)C)C(=O)N[C@@H](CCCNC(=N)N)C(=O)N[C@@H](CCC(N)=O)C(=O)N[C@H](C(=O)N[C@@H](CC(C)C)C(=O)N[C@@H](CCCNC(=N)N)C(=O)N[C@H](C(=O)N[C@@H](CC(C)C)C(=O)N[C@@H](CCCNC(=N)N)C(N)=O)[C@@H](C)O)C(C)C)C(C)C` [Peptide 1301-3, JLArEYKKIVEKLKRWLRQVLRTLRB] (Ac-LA[dR]EYKKIVEKLKRWLRQVLRTLR-NH2) were 38.4 µM and 0.6 µM.
With `CC[C@H](C)[C@H](NC(=O)[C@H](CCCCN)NC(=O)[C@H](CCCCN)NC(=O)[C@H](Cc1ccc(O)cc1)NC(=O)[C@@H](CCC(=O)O)NC(=O)[C@H](CCCNC(=N)N)NC(=O)[C@H](C)NC(=O)[C@H](CC(C)C)NC(C)=O)C(=O)N[C@H](C(=O)N[C@@H](CCC(=O)O)C(=O)N[C@@H](CCCCN)C(=O)N[C@@H](CC(C)C)C(=O)N[C@@H](CCCCN)C(=O)N[C@@H](CCCNC(=N)N)C(=O)N[C@@H](Cc1c[nH]c2ccccc12)C(=O)N[C@@H](CC(C)C)C(=O)N[C@@H](CCCNC(=N)N)C(=O)N[C@@H](CCC(N)=O)C(=O)N[C@H](C(=O)N[C@@H](CC(C)C)C(=O)N[C@@H](CCCNC(=N)N)C(=O)N[C@H](C(=O)N[C@@H](CC(C)C)C(=O)N[C@@H](CCCNC(=N)N)C(N)=O)[C@@H](C)O)C(C)C)C(C)C` [Peptide 1301-4, JLAReYKKIVEKLKRWLRQVLRTLRB] (Ac-LAR[dE]YKKIVEKLKRWLRQVLRTLR-NH2), the “LC99.9 (μM) (50% plasma)” value amounted to 38.4 µM and the “LC99.9 (μM) (PBS)” value stood at 0.6 µM.
Taken in the same sequence, the figures for `CC[C@H](C)[C@H](NC(=O)[C@H](CCCCN)NC(=O)[C@H](CCCCN)NC(=O)[C@@H](Cc1ccc(O)cc1)NC(=O)[C@H](CCC(=O)O)NC(=O)[C@H](CCCNC(=N)N)NC(=O)[C@H](C)NC(=O)[C@H](CC(C)C)NC(C)=O)C(=O)N[C@H](C(=O)N[C@@H](CCC(=O)O)C(=O)N[C@@H](CCCCN)C(=O)N[C@@H](CC(C)C)C(=O)N[C@@H](CCCCN)C(=O)N[C@@H](CCCNC(=N)N)C(=O)N[C@@H](Cc1c[nH]c2ccccc12)C(=O)N[C@@H](CC(C)C)C(=O)N[C@@H](CCCNC(=N)N)C(=O)N[C@@H](CCC(N)=O)C(=O)N[C@H](C(=O)N[C@@H](CC(C)C)C(=O)N[C@@H](CCCNC(=N)N)C(=O)N[C@H](C(=O)N[C@@H](CC(C)C)C(=O)N[C@@H](CCCNC(=N)N)C(N)=O)[C@@H](C)O)C(C)C)C(C)C` [Peptide 1301-5, JLAREyKKIVEKLKRWLRQVLRTLRB] (Ac-LARE[dY]KKIVEKLKRWLRQVLRTLR-NH2) were 38.4 µM and 0.6 µM.
In the case of `CC[C@H](C)[C@H](NC(=O)[C@H](CCCCN)NC(=O)[C@@H](CCCCN)NC(=O)[C@H](Cc1ccc(O)cc1)NC(=O)[C@H](CCC(=O)O)NC(=O)[C@H](CCCNC(=N)N)NC(=O)[C@H](C)NC(=O)[C@H](CC(C)C)NC(C)=O)C(=O)N[C@H](C(=O)N[C@@H](CCC(=O)O)C(=O)N[C@@H](CCCCN)C(=O)N[C@@H](CC(C)C)C(=O)N[C@@H](CCCCN)C(=O)N[C@@H](CCCNC(=N)N)C(=O)N[C@@H](Cc1c[nH]c2ccccc12)C(=O)N[C@@H](CC(C)C)C(=O)N[C@@H](CCCNC(=N)N)C(=O)N[C@@H](CCC(N)=O)C(=O)N[C@H](C(=O)N[C@@H](CC(C)C)C(=O)N[C@@H](CCCNC(=N)N)C(=O)N[C@H](C(=O)N[C@@H](CC(C)C)C(=O)N[C@@H](CCCNC(=N)N)C(N)=O)[C@@H](C)O)C(C)C)C(C)C` [Peptide 1301-6, JLAREYkKIVEKLKRWLRQVLRTLRB] (Ac-LAREY[dK]KIVEKLKRWLRQVLRTLR-NH2), the “LC99.9 (μM) (50% plasma)” value was found to be 38.4 µM and the “LC99.9 (μM) (PBS)” value came to 0.6 µM.
Taken in the same sequence, the figures for `CC[C@H](C)[C@H](NC(=O)[C@@H](CCCCN)NC(=O)[C@H](CCCCN)NC(=O)[C@H](Cc1ccc(O)cc1)NC(=O)[C@H](CCC(=O)O)NC(=O)[C@H](CCCNC(=N)N)NC(=O)[C@H](C)NC(=O)[C@H](CC(C)C)NC(C)=O)C(=O)N[C@H](C(=O)N[C@@H](CCC(=O)O)C(=O)N[C@@H](CCCCN)C(=O)N[C@@H](CC(C)C)C(=O)N[C@@H](CCCCN)C(=O)N[C@@H](CCCNC(=N)N)C(=O)N[C@@H](Cc1c[nH]c2ccccc12)C(=O)N[C@@H](CC(C)C)C(=O)N[C@@H](CCCNC(=N)N)C(=O)N[C@@H](CCC(N)=O)C(=O)N[C@H](C(=O)N[C@@H](CC(C)C)C(=O)N[C@@H](CCCNC(=N)N)C(=O)N[C@H](C(=O)N[C@@H](CC(C)C)C(=O)N[C@@H](CCCNC(=N)N)C(N)=O)[C@@H](C)O)C(C)C)C(C)C` [Peptide 1301-7, JLAREYKkIVEKLKRWLRQVLRTLRB] (Ac-LAREYK[dK]IVEKLKRWLRQVLRTLR-NH2) were 25.6 µM and 0.6 µM.
In the same order, the values of `CC[C@@H](C)[C@@H](NC(=O)[C@H](CCCCN)NC(=O)[C@H](CCCCN)NC(=O)[C@H](Cc1ccc(O)cc1)NC(=O)[C@H](CCC(=O)O)NC(=O)[C@H](CCCNC(=N)N)NC(=O)[C@H](C)NC(=O)[C@H](CC(C)C)NC(C)=O)C(=O)N[C@H](C(=O)N[C@@H](CCC(=O)O)C(=O)N[C@@H](CCCCN)C(=O)N[C@@H](CC(C)C)C(=O)N[C@@H](CCCCN)C(=O)N[C@@H](CCCNC(=N)N)C(=O)N[C@@H](Cc1c[nH]c2ccccc12)C(=O)N[C@@H](CC(C)C)C(=O)N[C@@H](CCCNC(=N)N)C(=O)N[C@@H](CCC(N)=O)C(=O)N[C@H](C(=O)N[C@@H](CC(C)C)C(=O)N[C@@H](CCCNC(=N)N)C(=O)N[C@H](C(=O)N[C@@H](CC(C)C)C(=O)N[C@@H](CCCNC(=N)N)C(N)=O)[C@@H](C)O)C(C)C)C(C)C` [Peptide 1301-8, JLAREYKKiVEKLKRWLRQVLRTLRB] (Ac-LAREYKK[dI]VEKLKRWLRQVLRTLR-NH2) are 38.4 µM and 0.6 µM.

Still in this experiment, the particulars now being: statements referring to Tables 2-6.
For the compound `CC[C@@H](C)[C@@H](NC(=O)[C@H](NC(=O)[C@@H](CCC(=O)O)NC(=O)[C@@H](CCCCN)NC(=O)[C@@H](CC(C)C)NC(=O)[C@@H](CCCCN)NC(=O)[C@@H](CCCNC(=N)N)NC(=O)[C@@H](Cc1c[nH]c2ccccc12)NC(=O)[C@@H](CC(C)C)NC(=O)[C@@H](CCCNC(=N)N)NC(=O)[C@@H](CCC(N)=O)NC(=O)[C@H](NC(=O)[C@@H](CC(C)C)NC(=O)[C@@H](CCCNC(=N)N)NC(=O)[C@H](NC(=O)[C@@H](CC(C)C)NC(=O)[C@H](N)CCCNC(=N)N)[C@H](C)O)C(C)C)C(C)C)C(=O)N[C@H](CCCCN)C(=O)N[C@H](CCCCN)C(=O)N[C@H](Cc1ccc(O)cc1)C(=O)N[C@H](CCC(=O)O)C(=O)N[C@H](CCCNC(=N)N)C(=O)N[C@H](C)C(=O)N[C@H](CC(C)C)C(N)=O` [Peptide 1241-03, rltrlvqrlwrklkevikkyeralB] (H-[dR][dL][dT][dR][dL][dV][dQ][dR][dL][dW][dR][dK][dL][dK][dE][dV][dI][dK][dK][dY][dE][dR][dA][dL]-NH2), the “antimicrobial activity, in words” value is recorded as “possesses antimicrobial activity”.
